US8785488B2 (Exelixis Patent Company LLC, priority 2009, dated 2014)

Columns and labels:
human TGR5 (h-TGR5) = target: T1, human TGR5 (h-TGR5) (Homo sapiens, UniProt Q8TDU6); assay: TGR5/CRE-Luciferiase Assay (HEK 293 hTGR5/CRE-Luc cells); type: cell-based; settings: h-TGR5 CRE-Luc EC50, Table 1; read-out: CRE-Luc (EC50)
T1 construct: expressed in transfected cells
T1 sequence (Q8TDU6 1-330): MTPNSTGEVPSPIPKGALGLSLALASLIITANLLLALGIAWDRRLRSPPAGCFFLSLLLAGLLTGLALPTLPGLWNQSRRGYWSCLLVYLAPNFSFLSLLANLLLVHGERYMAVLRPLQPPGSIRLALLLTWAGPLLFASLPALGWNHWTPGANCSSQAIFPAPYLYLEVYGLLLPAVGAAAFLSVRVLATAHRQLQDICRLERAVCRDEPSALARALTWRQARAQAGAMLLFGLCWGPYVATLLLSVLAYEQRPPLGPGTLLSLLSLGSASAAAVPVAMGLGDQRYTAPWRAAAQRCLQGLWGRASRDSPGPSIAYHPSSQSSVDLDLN
In short: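 HEK293 cells stably carrying hTGR5 and a CRE-luciferase reporter were exposed to serially diluted compounds (diluted in DMEM with 5% DMSO) for 6 h. Cells were then lysed in luciferase buffer, luminescence was read, and EC50 values were derived from dose-response curves.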

h-TGR5 = target: T2, h-TGR5 (Homo sapiens, UniProt Q8TDU6); assay: TGR5 cAMP Assay using Cisbio cAMP Dynamic2 htrf kit (hTGR5CRE-luc HEK 293 cells); type: cell-based; settings: h-TGR5 cAMP EC50, Table 1; read-out: cAMP (EC50)
T2 construct: expressed in transfected cells
T2 sequence (Q8TDU6 1-330): T1 sequence (Q8TDU6 1-330)
In short: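 […], 4000 hTGR5CRE-luc HEK 293 cells per well, with 0.5 mM IBMX and d2-cAMP, were incubated 30 min at room temperature with compounds in 8-point half-log series, in quadruplicate.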

Structure (SMILES)	EC50 (human TGR5 (h-TGR5))	EC50 (h-TGR5)
CC(C)(c1ccc(F)c(Cl)c1)c1cnc(SCc2ccc(S(=O)(=O)NC(=O)NN3CCCC3)cc2Cl)n1-c1ccc(F)cc1 [3-chloro-4-[({5-[1-(3-chloro-4-fluorophenyl)-1-methylethyl]-1-(4-fluorophenyl)-1H-imidazol-2-yl}thio)methyl]-N-[(pyrrolidin-1-ylamino)carbonyl]benzenesulfonamide]	0.1 to 1 µM	0.1 to 1 µM
CC(C)(c1ccc(F)c(C#N)c1)c1cnc(SCc2ccc(S(=O)(=O)NC(=O)NN3CCCC3)cc2Cl)n1-c1ccc(F)cc1 [3-chloro-4-[({5-[1-(3-cyano-4-fluorophenyl)-1-methylethyl]-1-(4-fluorophenyl)-1H-imidazol-2-yl}thio)methyl]-N-[(pyrrolidin-1-ylamino)carbonyl]benzenesulfonamide]	0.1 to 1 µM	0.1 to 1 µM
CC(C)NC(=O)NS(=O)(=O)c1ccc(CSc2ncc(C(C)(C)c3ccc(F)c(C#N)c3)n2-c2ccc(F)cc2)c(Cl)c1 [3-chloro-4-[({5-[1-(3-cyano-4-fluorophenyl)-1-methylethyl]-1-(4-fluorophenyl)-1H-imidazol-2-yl}thio)methyl]-N-{[(1-methylethyl)amino]carbonyl}benzenesulfonamide]	0.1 to 1 µM	0.1 to 1 µM
COc1cc(-n2c(C(C)(C)c3ccc(F)c(C#N)c3)cnc2SCc2ccc(S(=O)(=O)NC(=O)NN3CCCC3)cc2Cl)ccc1F [3-chloro-4-[({5-[1-(3-cyano-4-fluorophenyl)-1-methylethyl]-1-[4-fluoro-3-(methyloxy)phenyl]-1H-imidazol-2-yl}thio)methyl]-N-[(pyrrolidin-1-ylamino)carbonyl]benzenesulfonamide]	0.1 to 1 µM	0.1 to 1 µM
COc1cc(-n2c(C(C)(C)c3ccc(F)c(C#N)c3)cnc2SCc2ccc(S(=O)(=O)NC(=O)NC(C)C)cc2Cl)ccc1F [3-chloro-4-[({5-[1-(3-cyano-4-fluorophenyl)-1-methylethyl]-1-[4-fluoro-3-(methyloxy)phenyl]-1H-imidazol-2-yl}thio)methyl]-N-{[(1-methylethyl)amino]carbonyl}benzenesulfonamide]	< 0.1 µM	< 0.1 µM
Cc1cc(-n2c(C(C)(C)c3ccc(Cl)c(Cl)c3)cnc2SCc2ccc(S(=O)(=O)NC(=O)NN3CCCC3)cc2Cl)ccc1F [3-chloro-4-[({5-[l-(3,4-dichlorophenyl)-1-methylethyl]-1-(4-fluoro-3-methylphenyl)-1H-imidazol-2-yl}thio)methyl]-N-[(pyrrolidin-1-ylamino)carbonyl]benzenesulfonamide]	0.1 to 1 µM	0.1 to 1 µM
COc1cc(-n2c(C(C)(C)c3ccc(S(C)(=O)=O)cc3)cnc2SCc2ccc(S(=O)(=O)NC(=O)NN3CCCC3)cc2Cl)ccc1F [3-chloro-4-{[(1-[4-fluoro-3-(methyloxy)phenyl]-5-{1-methyl-1-[4-(methylsulfonyl)phenyl]ethyl}-1H-imidazol-2-yl)thio]methyl}-N-[(pyrrolidin-1-ylamino)carbonyl]benzenesulfonamide]	0.1 to 1 µM	1 to 10 µM
CC(C)(c1ccc(Cl)c(Cl)c1)c1cnc(SCc2c(F)cc(C(=O)O)cc2Cl)n1-c1ccc(F)c(OCCCO)c1 [3-chloro-4-{[(5-[1-(3,4-dichlorophenyl)-1-methylethyl]-1-{4-fluoro-3-[(3-hydroxypropyl)oxy]phenyl}-1H-imidazol-2-yl)thio]methyl}-5-fluorobenzoic acid]	0.1 to 1 µM	0.1 to 1 µM
COc1cc(-n2c(C(C)(C)c3ccc(S(C)(=O)=O)c(Cl)c3)cnc2SCc2ccc(S(=O)(=O)NC(=O)NN3CCCC3)cc2Cl)ccc1F [3-chloro-4-{[(5-{1-[3-chloro-4-(methylsulfonyl)phenyl]-1-methylethyl}-1-[4-fluoro-3-(methyloxy)phenyl]-1H-imidazol-2-yl)thio]methyl}-N-[(pyrrolidin-1-ylamino)carbonyl]benzenesulfonamide]	0.1 to 1 µM	0.1 to 1 µM
COc1cc(C(C)(C)c2cnc(SCc3ccc(S(=O)(=O)NC(=O)NN4CCCC4)cc3Cl)n2-c2ccc(F)c(CO)c2)ccc1Cl [3-chloro-4-{[(5-{1-[4-chloro-3-(methyloxy)phenyl]-1-methylethyl}-1-[4-fluoro-3-(hydroxymethyl)phenyl]-1H-imidazol-2-yl)thio]methyl}-N-[(pyrrolidin-1-ylamino)carbonyl]benzenesulfonamide]	0.1 to 1 µM	0.1 to 1 µM
COc1cc(-n2c(C(C)(C)c3ccc(Cl)c(OC)c3)cnc2SCc2ccc(S(=O)(=O)NC(=O)NN3CCCC3)cc2Cl)ccc1F [3-chloro-4-{[(5-{1-[4-chloro-3-(methyloxy)phenyl]-1-methylethyl}-1-[4-fluoro-3-(methyloxy)phenyl]-1H-imidazol-2-yl)thio]methyl}-N-[(pyrrolidin-1-ylamino)carbonyl]benzenesulfonamide]	< 0.1 µM	< 0.1 µM
COc1cc(C(C)(C)c2cnc(SCc3c(F)cc(C(=O)O)cc3Cl)n2-c2cccnc2)ccc1Cl [3-chloro-4-{[(5-{1-[4-chloro-3-(methyloxy)phenyl]-1-methylethyl}-1-pyridin-3-yl-1H-imidazol-2-yl)thio]methyl}-5-fluorobenzoic acid]	1 to 10 µM	1 to 10 µM
COc1cc(-n2c(C(C)(C)c3ccc(F)c(Cl)c3)cnc2SCc2c(F)cc(CCCN(C)C)cc2F)ccc1F [3-{4-[({5-[1-(3-chloro-4-fluorophenyl)-1-methylethyl]-1-[4-fluoro-3-(methyloxy)phenyl]-1H-imidazol-2-yl}thio)methyl]-3,5-difluorophenyl}-N,N-dimethylpropan-1-amine]	< 0.1 µM	< 0.1 µM
COc1cc(-n2c(C(C)(C)c3ccc(S(N)(=O)=O)c(Cl)c3)cnc2SCc2ccc(S(N)(=O)=O)cc2Cl)ccc1F [4-(1-{2-({[4-(aminosulfonyl)-2-chlorophenyl]methyl}thio)-1-[4-fluoro-3-(methyloxy)phenyl]-1H-imidazol-5-yl}-1-methylethyl)-2-chlorobenzenesulfonamide]	< 0.1 µM	< 0.1 µM
COc1cc(C(C)(C)c2cnc(SCc3c(F)cc(C(=O)NCCCC(=O)O)cc3Cl)n2-c2ccc(F)cc2)ccc1Cl [4-({[3-chloro-4-({[5-{1-[4-chloro-3-(methyloxy)phenyl]-1-methylethyl}-1-(4-fluorophenyl)-1H-imidazol-2-yl]thio}methyl)-5-fluorophenyl]carbonyl}amino)butanoic acid]	< 0.1 µM	< 0.1 µM
COc1cc(C(C)(C)c2c(Cl)nc(SCC3CCN(c4nnn[nH]4)CC3)n2-c2ccc(F)cc2)ccc1Cl [4-({[4-chloro-5-{1-[4-chloro-3-(methyloxy)phenyl]-1-methylethyl}-1-(4-fluorophenyl)-1H-imidazol-2-yl]thio}methyl)-1-(1H-tetrazol-5-yl)piperidine]	< 0.1 µM	1 to 10 µM
COc1cc(C(C)(C)c2c(Cl)nc(SCC3CCN(S(C)(=O)=O)CC3)n2-c2ccc(F)cc2)ccc1Cl [4-({[4-chloro-5-{1-[4-chloro-3-(methyloxy)phenyl]-1-methylethyl}-1-(4-fluorophenyl)-1H-imidazol-2-yl]thio}methyl)-1-(methylsulfonyl)piperidine]	0.1 to 1 µM	0.1 to 1 µM
COc1ccc(C(C)(C)c2cnc(SCc3ccc(C(N)=O)cc3F)n2-c2ccc(F)cc2)cc1OC [4-({[5-{1-[3,4-bis(methyloxy)phenyl]-1-methylethyl}-1-(4-fluorophenyl)-1H-imidazol-2-yl]thio}methyl)-3-fluorobenzamide]	0.1 to 1 µM	< 0.1 µM
CC(C)(c1ccc(Cl)c(S(N)(=O)=O)c1)c1cnc(SCc2c(F)cc(C(=O)O)cc2Cl)n1-c1ccc(F)cc1 [4-({[5-{1-[3-(aminosulfonyl)-4-chlorophenyl]-1-methylethyl}-1-(4-fluorophenyl)-1H-imidazol-2-yl]thio}methyl)-3-chloro-5-fluorobenzoic acid]	0.1 to 1 µM	0.1 to 1 µM
COc1ccc(C(C)(C)c2cnc(SCc3c(F)cc(C(=O)O)cc3F)n2-c2ccc(F)cc2)cc1Cl [4-({[5-{1-[3-chloro-4-(methyloxy)phenyl]-1-methylethyl}-1-(4-fluorophenyl)-1H-imidazol-2-yl]thio}methyl)-3,5-difluorobenzoic acid]	< 0.1 µM	< 0.1 µM
COc1ccc(C(C)(C)c2cnc(SCc3c(F)cc(C#N)cc3F)n2-c2ccc(F)cc2)cc1Cl [4-({[5-{1-[3-chloro-4-(methyloxy)phenyl]-1-methylethyl}-1-(4-fluorophenyl)-1H-imidazol-2-yl]thio}methyl)-3,5-difluorobenzonitrile]	< 0.1 µM	< 0.1 µM
COc1cc(C(C)(C)c2cnc(SCc3ccc(S(=O)(=O)NC(=O)NN4CCCC4)cc3Cl)n2-c2ccc(F)cc2)ccc1S(N)(=O)=O [4-({[5-{1-[4-(aminosulfonyl)-3-(methyloxy)phenyl]-1-methylethyl}-1-(4-fluorophenyl)-1H-imidazol-2-yl]thio}methyl)-3-chloro-N-[(pyrrolidine-1-ylamino)carbonyl]benzenesulfonamide]	0.1 to 1 µM	0.1 to 1 µM
CC(C)(c1ccc(S(N)(=O)=O)c(Cl)c1)c1cnc(SCc2c(F)cc(C(=O)O)cc2F)n1-c1ccc(F)c(F)c1 [4-({[5-{1-[4-(aminosulfonyl)-3-chlorophenyl]-1-methylethyl}-1-(3,4-difluorophenyl)-1H-imidazol-2-yl]thio}methyl)-3,5-difluorobenzoic acid]	< 0.1 µM	< 0.1 µM
